Test results reported in ChEMBL document CHEMBL1142922, “Amphipathic benzoic acid derivatives: synthesis and binding in the hydrophobic tunnel of the zinc deacetylase LpxC” (Bioorg Med Chem, 2007).
pKd: −log10 of the molar value. Activity calls are given as the source filed them. No cut-off for these calls is given here.

The molecules below were run against T1, UDP-3-O-acyl-N-acetylglucosamine deacetylase (Aquifex aeolicus (strain VF5), UniProt O67648) (assay: (§1) Binding affinity to Aquifex aeolicus LpxC by isothermal titration calorimetry).
T1 sequence (O67648 whole entry): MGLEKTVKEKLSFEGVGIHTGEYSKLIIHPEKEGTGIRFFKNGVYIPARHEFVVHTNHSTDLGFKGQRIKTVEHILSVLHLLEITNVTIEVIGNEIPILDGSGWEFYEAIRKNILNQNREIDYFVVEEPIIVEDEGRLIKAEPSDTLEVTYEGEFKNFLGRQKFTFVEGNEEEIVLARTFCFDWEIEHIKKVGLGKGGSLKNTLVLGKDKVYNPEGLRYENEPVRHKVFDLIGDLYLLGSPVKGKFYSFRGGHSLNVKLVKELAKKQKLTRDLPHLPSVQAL

Row | Structure (SMILES) | pKd
1 | CCCCCCCOc1ccc(C(=O)O)cc1[N+](=O)[O-] | 5.19
2 | CCCCCCCOc1ccc(C(=O)O)cc1 | 5.64
3 | CCCCCCCOc1ccc(C(=O)O)cc1OC | 5.07
4 | CCCCCC/C=C/c1ccc(C(=O)O)cc1 | 5.21
5 | CCCCCCCc1ccc(C(=O)O)cc1 | 4.46
6 | CCCCCCCOc1ccc(C(=O)O)cc1Cl | 4.52
7 | CCCCCCCOc1ccc(C(=O)O)cc1O | 5.05
8 | CCCCCCCOc1ccc(CC(=O)O)cc1 | 5.59

These molecules were tested against T2, UDP-3-O-acyl-N-acetylglucosamine deacetylase (Aquifex aeolicus (strain VF5)) (UniProt O67648) (assay: as §1).
T2 sequence (whole entry): T1 sequence (O67648 whole entry)

Row | Activity | Structure (SMILES)
9 | inactive | COc1ccc(C(=O)O)cc1
10 | inactive | CCCc1ccc(-c2ccc(C(=O)O)cc2)cc1
